# Experimental data taken from PMC8792998 (Journal of medicinal chemistry, 2021).
# Assays:
# C. parvum [1] = assay: C. parvum-infected HCT-8 cell assay; format: cell-based, Cryptosporidium parvum; settings: for fold loss of potency: Cp HCT-8 EC50, Table 1 linker SAR, comparator not given; for change of potency, in words: Cp HCT-8 assay, Table 1 linker SAR
# hERG [2] = molecular target: T1, hERG (Homo sapiens, UniProt Q12809); assay: hERG-CHO automated patch clamp electrophysiology; format: cell-based
# T1 sequence (Q12809 whole entry): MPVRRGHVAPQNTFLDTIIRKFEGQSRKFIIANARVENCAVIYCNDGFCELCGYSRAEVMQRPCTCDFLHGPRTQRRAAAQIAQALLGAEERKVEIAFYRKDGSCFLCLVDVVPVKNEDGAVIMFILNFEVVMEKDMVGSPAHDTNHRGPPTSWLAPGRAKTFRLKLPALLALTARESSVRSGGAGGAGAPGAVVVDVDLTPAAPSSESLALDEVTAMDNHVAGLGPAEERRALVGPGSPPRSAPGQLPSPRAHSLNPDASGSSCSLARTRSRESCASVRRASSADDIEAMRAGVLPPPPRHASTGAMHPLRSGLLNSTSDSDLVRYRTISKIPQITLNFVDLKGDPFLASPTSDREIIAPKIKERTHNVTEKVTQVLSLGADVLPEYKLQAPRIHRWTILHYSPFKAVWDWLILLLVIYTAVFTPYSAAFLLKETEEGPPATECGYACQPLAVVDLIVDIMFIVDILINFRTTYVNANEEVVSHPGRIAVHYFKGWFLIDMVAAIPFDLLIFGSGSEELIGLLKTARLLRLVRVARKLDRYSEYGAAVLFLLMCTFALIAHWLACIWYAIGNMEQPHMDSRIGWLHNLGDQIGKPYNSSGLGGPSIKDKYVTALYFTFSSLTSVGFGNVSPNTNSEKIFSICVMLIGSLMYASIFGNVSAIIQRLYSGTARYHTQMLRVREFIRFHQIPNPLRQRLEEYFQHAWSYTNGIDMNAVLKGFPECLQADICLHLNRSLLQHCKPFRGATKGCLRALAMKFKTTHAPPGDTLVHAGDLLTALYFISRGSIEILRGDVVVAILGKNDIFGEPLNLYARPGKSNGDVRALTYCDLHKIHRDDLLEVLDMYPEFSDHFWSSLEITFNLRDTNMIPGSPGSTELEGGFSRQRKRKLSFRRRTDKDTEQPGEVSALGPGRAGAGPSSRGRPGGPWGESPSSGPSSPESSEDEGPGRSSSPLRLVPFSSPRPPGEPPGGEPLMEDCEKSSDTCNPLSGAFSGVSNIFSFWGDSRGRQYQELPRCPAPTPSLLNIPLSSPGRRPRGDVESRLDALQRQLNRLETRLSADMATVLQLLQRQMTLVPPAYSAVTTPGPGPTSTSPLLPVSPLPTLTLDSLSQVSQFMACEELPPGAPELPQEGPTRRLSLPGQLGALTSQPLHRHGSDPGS
# [3] = tested on: human Ether-a-go-go-Related Gene (hERG); settings: read-out: hERG IC50; reported value; cited from earlier work
# C. parvum [4] = assay: C. parvum time-kill curve; format: cell-based, Cryptosporidium parvum; settings: for effect on parasite numbers in time-kill assay: compound added at multiples of EC90 24 hours after infection
# hERG [5] = molecular target: T1, hERG; assay: hERG [3H]-dofetilide competitive binding assay; settings: human, probe [3H]-dofetilide
# C. parvum [6] = settings: previous work, cited from earlier work
# HCT-8 cells = assay: Host cell toxicity, CellTiter AQueous colorimetric assay; format: cell-based, human
# [7] = tested on: CYP1A2, CYP2B6, CYP2C8, CYP2D6, CYP3A4; assay: CYP inhibition panel at 10 μM, remaining isoforms; format: in vitro ADME; settings: human
# [8] = Mouse PK study, plasma and jejunum; format: in vivo, CD-1 mice; settings: male, CD-1, mouse, iv, 1 mg/kg
# C. parvum [9] = assay: NSG mouse model of C. parvum infection; settings: 50 mg/kg twice daily by oral gavage, days 7-10; fecal qPCR; n=4
# [10] = molecular target: human potassium channel hERG (Homo sapiens, UniProt Q12809); assay: hERG [3H]-dofetilide competitive binding assay; settings: 10 μM; inhibition of [3H]-dofetilide binding
# Sequence of human potassium channel hERG (Q12809 whole entry): as above
# [11] = molecular target: human p-glycoprotein (Pgp) multi-drug resistance (MDR) transporter (Homo sapiens, UniProt P08183); assay: MDR1 transporter assay; format: in vitro ADME; settings: 10 μM, 2 hours
molecule,measurement,setting,value
"2-(3,4-dichlorophenyl)-1-(2-methyl-4-{[1,2,4]triazolo[4,3-b]pyridazin-6-yl}piperazin-1-yl)ethan-1-one [Compound 10c]",fold loss of potency,C. parvum [1],> 50 fold
"O=C(Nc1ccc(Cl)cc1)N1CCN(c2ccc3nncn3n2)CC1 [Compound 1, reference compound]",IC50,hERG [2],~10 µM
same,hERG IC50 versus Cp EC90(free) ratio,hERG [2]; safety margin,~ 4 fold
same,IC50,[3],~10 µM
"O=C(Nc1ccc(Cl)c(Cl)c1)N1CCN(c2ccc3nncn3n2)CC1 [Compound 2, 4-([1,2,4]triazolo[4,3-b]pyridazin-6-yl)-N-(3,4-dichlorophenyl)piperazine-1-carboxamide]",effect on parasite numbers in time-kill assay,C. parvum [4],parasite numbers declined exponentially
same,inhibition at 10 µM,hERG [5],~50%
same,inhibition at 1 µM,"hERG [2]; human, CHO cells that express hERG",> 40%
same,fold more potent than MMV665917,C. parvum [6],about 4 fold
"O=C(Nc1ccc(Cl)c(Cl)c1)N1CCCN(c2ccc3nncn3n2)CC1 [Compound 10b, N-(3,4-dichlorophenyl)-4-{[1,2,4]triazolo[4,3-b]pyridazin-6-yl}-1,4-diazepane-1-carboxamide]",fold loss of potency,C. parvum [1],> 50 fold
"CN(C(=O)N1CCN(c2ccc3nncn3n2)CC1)c1ccc(Cl)c(Cl)c1 [Compound 11, N-(3,4-dichlorophenyl)-N-methyl-4-{[1,2,4]triazolo[4,3-b]pyridazin-6-yl}piperazine-1-carboxamide]","change of potency, in words",C. parvum [1],dramatic loss of potency
"O=C(Cc1ccc(Cl)c(Cl)c1)N1CCN(c2ccc3nncn3n2)CC1 [Compound 12a, 2-(3,4-Dichlorophenyl)-1-(4-{[1,2,4]triazolo[4,3-b]pyridazin-6-yl}piperazin-1-yl)ethan-1-one]",time of exposure to eliminate 99.9% of parasites,"C. parvum [4]; based on estimated decay rate, at six times the EC90",≤ 98 h
same,"cytotoxicity in HCT-8 cells, in words",HCT-8 cells,non-cytotoxic in HCT-8 cells
same,IC50,hERG [2],~8 µM
same,"hERG margin using EC50, not corrected for plasma protein binding",hERG [2]; safety margin,> 40 fold
same,inhibition at 10 µM,[7],≤ 10%
same,clearance,[8]; jejunum,0.7 mL/min/kg
same,clearance at 6 h,[8]; plasma,0.317 mL/min/kg
same,mice with no parasites detected ten days after completing treatment,C. parvum [9],3 of 4 and three of the four
"O=C(c1ccc(Cl)c(Cl)c1)N1CCN(c2ccc3nncn3n2)CC1 [Compound 12b, 1-(3,4-dichlorobenzoyl)-4-{[1,2,4]triazolo[4,3-b]pyridazin-6-yl}piperazine]",fold loss of potency relative to 12a,C. parvum [1]; Cp HCT-8 EC50,> 100 fold
"O=C(Cc1ccc(Cl)c(Cl)c1)N1CCCN(c2ccc3nncn3n2)CC1 [Compound 12c, 2-(3,4-dichlorophenyl)-1-(4-{[1,2,4]triazolo[4,3-b]pyridazin-6-yl}-1,4-diazepan-1-yl)ethan-1-one]",fold loss of potency,C. parvum [1],> 50 fold
"CC1CN(c2ccc3nncn3n2)CCN1C(=O)Cc1ccc(Cl)c(Cl)c1 (stereo not shown) [Compound 12d, 2-(3,4-dichlorophenyl)-1-(2-methyl-4-{[1,2,4]triazolo[4,3-b]pyridazin-6-yl}piperazin-1-yl)ethan-1-one]",fold loss of potency,C. parvum [1],> 50 fold
"O=S(=O)(Cc1ccc(Cl)c(Cl)c1)N1CCN(c2ccc3nncn3n2)CC1 [Compound 13, 1-[(3,4-dichlorophenyl)methanesulfonyl]-4-{[1,2,4]triazolo[4,3-b]pyridazin-6-yl}piperazine]","change of potency, in words",C. parvum [1],dramatic loss of potency
"O=C(Cc1ccc(F)cc1)N1CCN(c2ccc3nncn3n2)CC1 [Compound 29h, 2-(4-fluorophenyl)-1-(4-{[1,2,4]triazolo[4,3-b]pyridazin-6-yl}piperazin-1-yl)ethan-1-one]","fold more potent than H (entry 1, 29a)","C. parvum [1]; Cp HCT-8 EC50, Table 2",18 fold
"O=C(Cc1ccc(Cl)cc1)N1CCN(c2ccc3nncn3n2)CC1 [Compound 29i, 2-(4-chlorophenyl)-1-(4-{[1,2,4]triazolo[4,3-b]pyridazin-6-yl}piperazin-1-yl)ethan-1-one]","fold more potent than H (entry 1, 29a)","C. parvum [1]; Cp HCT-8 EC50, Table 2",25 fold
"O=C(Cc1cccc(Cl)c1)N1CCN(c2ccc3nncn3n2)CC1 [Compound 29j, 2-(3-chlorophenyl)-1-(4-{[1,2,4]triazolo[4,3-b]pyridazin-6-yl}piperazin-1-yl)ethan-1-one]",fold less potent than chlorine in the 4-position,"C. parvum [1]; Cp HCT-8 EC50, Table 2",4 fold
"CC(=O)Oc1ccccc1C(=O)Nc1ncc([N+](=O)[O-])s1 [NTZ, nitazoxanide, reference compound]",host cell cytotoxicity in time-kill assay,C. parvum [4]; HCT-8 cultures,cytotoxic at concentrations above the EC90
same,effect on parasite numbers in time-kill assay,C. parvum [4],blocked C. parvum growth without eliminating the parasite from HCT-8 cultures
same,EC50,"C. parvum [6]; read-out: EC50, parasite growth in vitro",3.8 µM
"N-(3,4-dichlorophenyl)-4-{[1,2,4]triazolo[4,3-b]pyridazin-6-yl}cyclohex-3-ene-1-carboxamide [Compound 18a]","change of potency, in words",C. parvum [1],equipotent to its N-linked counterpart 2
same,"hERG binding, %inh",[10],56%
same,MDCK-MDR Efflux Ratio,[11],6.5
